Read-outs that look alike come from different tables or passages of the source.
Key:
[1] = pH of quencher stock and of RBC mixture; format: physicochemical; conditions: for pH of stock quencher: room temperature
Description: The effect of various quenching conditions on the pH of a red blood cell composition was determined for various treatment conditions. The quencher solutions were prepared at a concentration of 600 mM in 8% dextrose monohydrate. […] Glutathione was assessed at 2 mM (acidic) or 20 mM (2 eq. of base). […] The pH of the quencher solution, either unmodified or neutralized, was measured using a standard Epoxy Calomel electrode (Beckman Instruments) at room temperature. […] The samples were mixed and the pH at room temperature was measured using the same electrode as described above.
In these, the appropriate amount of 600 mM stock was added, mixed with an appropriate volume of 8% dextrose to provide the same volume addition to each RBC sample where in one study, with varied glutathione concentrations, the pH was measured after adding glutathione and after adding PIC-1. […] Similar samples were also assessed for the inactivation of S. epidermidis. […] For gel card analysis, after incubation, the RBC were washed in BBS and were diluted in BBS to a final hematocrit of 4%. A 25 μL aliquot of each was mixed with 15 μL of rabbit polyclonal anti-acridine sera diluted either 1:4 or 1:100 in BBS and the mixture was incubated at 37° C. for 30 minutes. The cells were subsequently washed with 1.5 mL BBS. After washing was complete, the cells were mixed with goat anti-rabbit Fab′2 fragment anti H+L chains (1:4 dilution in PBS) and incubated at 37° C. for 30 minutes.

[2] = test system: Serratia marcescens; format: cell-based; conditions: Table 5B: 20 mM Cys+2 eq base only, no PIC-1
[3] = test system: red blood cells; format: cell-based; conditions: 20 mM Cys+2 eq NaOH only, no PIC-1
Description: In another assay, the rabbit polyclonal sera may be reacted with treated red blood cells. After washing off unbound antibody, a FITC labeled goat anti-rabbit Fab′2 fragment (anti H+L chains, Caltag) is added. The binding of FITC label to the red blood cells correlates with the amount of acridine bound to the red blood cell surface, and is assessed by FACScan™ analysis (Becton, Dickinson and Co., NJ). The relative modification of the red blood cells is determined from the FACScan™ mean fluorescence value.
A 20 mL sample of leukoreduced whole blood (Blood Source, Sacramento, Calif.) was centrifuged at 4,100×g for 5 minutes at room temperature in each of four 50 mL centrifuge tubes. The supernatant was removed from each tube to provide red cell concentrate (RCC). […] For each washed RCC, cells were resuspended in 5 mL of the solution used for washing. This is now referred to as the RBC test sample. […] These samples were incubated for 20 hours at room temperature. After incubation, the RBC were washed in BBS (Blood Bank Saline, 0.9% saline, unbuffered, Fisher Scientific) and were diluted to a final hematocrit of 4%. A 25 μL aliquot of each was mixed with 15 μL of rabbit polyclonal anti-acridine sera diluted 1:100 in BBS and the mixture was incubated at 37° C. for 30 minutes. The cells were subsequently washed with 1.5 mL BBS. After washing was complete, the cells were mixed with 50 μL of FITC labeled goat anti-rabbit Fab′2 fragment (1:64 dilution in BBS) and incubated at 37° C. for 30 minutes. […] Note that the quenching improves as glutathione is neutralized with increasing amounts of sodium hydroxide.
The FACScan analysis of the binding of rabbit anti-acridine sera to treated red cells was used to assess a variety of quenching conditions. […] The tables represent data from two different experiments, each with samples treated under standard conditions or with 20 mM neutralized glutathione. […] The data within an experiment provides the relative efficacy of the various treatments. Because the assay may depend on the lot of red blood cells used, the absolute values of mean fluorescence may vary from one study to the next, such that relative values should only be compared within a given experiment. […] Neutralized glutathione at 20 mM results in close to background levels.
An untreated control sample as well as a standard sample (co-addition of 2 mM acidic glutathione with 0.2 mM PIC-1) were also assessed.
Full units of red cell concentrates (Interstate Blood Bank, Inc., Memphis, Tenn.) were leukoreduced. A volume of 200 mL of this RCC (80% hematocrit) was mixed with 94 mL of Erythrosol or 100 mL of Adsol (Baxter Healthcare Corp., Deerfield, Ill.) as control (unit 1). A volume of 20 mL 8% dextrose was used to dissolve PIC-1 (mg) and acid glutathione (mg) and added to one unit to provide 0.2 mM PIC-1 and 2 mM glutathione (unit 2). […] For the glutathione, 1.2 mL of 10 N NaOH was added (2 equivalents). The PIC-1 was mixed with the unit, followed 1 minute later (unit 3) or 5 minutes later (unit 4) by glutathione. For unit 5, neutralized glutathione was mixed first, followed 10 minutes later by the PIC-1. […] All units were mixed by grasping the ends of the blood bag and mixing in a FIG. 8 motion 30 times. These were then incubated at room temperature for 20 hours total. A compound adsorption device (CAD), comprising a polymeric resin contained within a mesh pouch, was used for all but the control sample. This device is intended to remove residual PIC-1, PIC-1 breakdown products, and glutathione from the samples. Samples were incubated for 8 hours, then transferred to a second blood bag containing the CAD and incubated for an additional 12 hours. Following the room temperature incubation, samples were transferred to a refrigerator (4° C.) and stored up to 43 days.

[4] = test system: Staphylococcus epidermidis; assay: Inactivation of Staphylococcus epidermidis in RBC (colony count); conditions: Table 5C: 20 mM cysteine+1 eq base only, no PIC-1
Description: Whole blood (Blood Source, Sacramento, Calif.) was used to prepare a red blood cell (RBC) composition by centrifuging to provide packed RBC (34 mL of approximately 90% hematocrit), then adding 17 mL Erythrosol to a hematocrit of approximately 60%. Erythrosol is a red blood cell additive (Baxter Healthcare Corp., Deerfield, Ill.) that may be prepared by combining sodium citrate dihydrate (7.82 g); sodium acid phosphate dihydrate (0.73 g); sodium phosphate dihydrate (3.03 g); adenine (0.22 g); mannitol (7.74 g); and glucose (9 g) in 1 liter of distilled water. The bacterial preparation was then added ( 1/100th of the total volume) to the RBC/Erythrosol to provide contaminated RBC. The contaminated RBC was divided into several samples and treated according to Table 2, where PIC-1 is β-alanine, N-(acridin-9-yl), 2-[bis(2-chloroethyl)amino]ethyl ester. The PIC-1 and glutathione (Aldrich, St. Louis, Mo.) were dissolved in a solution of 8% dextrose monohydrate at about 15× the desired concentration in the final red blood cell composition when added together, or 30× when added separately. […] For separate addition using 20 mM neutralized glutathione, PIC-1 is prepared by dissolving 7.6 mg in 2.5 mL of 8% dextrose, glutathione is prepared by dissolving 460 mg in 1.9 mL of 8% dextrose and mixing with 0.6 mL of 5N NaOH, then adding 165 μL of each solution to 4.67 mL RBC in the appropriate order. Following treatment, the samples were incubated for 2 hours, and 100 μL of each was serially diluted and plated on LB plates. These were incubated overnight at 37° C. in order to assess bacterial growth. The bacterial titer was determined by counting colonies on the plates and based on the dilution of the plate, the titer was determined. For example, with 10-fold serial dilutions, 30 colonies counted on the 5th dilution of the original solution, where 0.1 mL are plated, would indicate an initial titer of (30×10^5)/0.1=3×10^7, or 7.47 log. […] Note that for most samples in Table 2A the PIC-1 and glutathione were formulated together. […] The study was repeated with sequential addition of the two components, as indicated in Table 2B (time delay of 0 indicates they were added in the same solution).
Additional studies were done using S. epidermidis, where the overnight culture was used without dilution. […] PIC-1 is at 0.2 mM in all samples.
For these samples, the NaOH stock was prepared at 10N and appropriate volumes of the various components were used following the procedures above. Standard conditions and/or 20 mM neutralized glutathione (GSH) were run for comparison.

[5] = 600 mM in 8% dextrose + 1 eq. base
[6] = Table 10: RBC + 20 mM quencher + 1 eq. base + 0.2 mM PIC-1
[7] = Table 10: RBC + 20 mM quencher + 2 eq. base + 0.2 mM PIC-1

SMILES	pH of stock quencher [1, 5]	pH of final mixture [1, 6]	Log S. marcescens reduction [2] [Log]	Log S. marcescens titer [2] [Log]	mean fluorescence ([3]; Table 9A: control)	mean fluorescence ([3]; Table 9B: control)	pH of final mixture [1, 7]	pH of final mixture ([1]; Table 10: RBC + 20 mM quencher, no base + 0.2 mM PIC-1)	Log S. epidermidis reduction [4] [Log]	Log S. epidermidis titer [4] [Log]	pH of stock quencher ([1]; 600 mM in 8% dextrose + 2 eq. base)
CC(=O)N[C@@H](CS)C(=O)O [N-acetyl cys, N-acetyl cysteine]	6	6.7									
N[C@@H](CS)C(=O)O [cysteine]		7.4	0.3	7.3	1.9	1.99	7.8	6.5	0.1	7.1	
CSCC[C@H](N)C(=O)O [methionine, reference compound]	11.2	7.5					8				13.1
